# Source: patent US7524836B2, “Nitrooxyderivative steroidal compounds” (Nicox S.A., priority 2001, dated 2009)
# Where two headings read alike, the source gives them in different places.
# Experiments:
# [1] = Test 5: inhibition of radical production from Fe^II (desoxyribose degradation); conditions: 10^-4 M methanolic solution, 37° C. for one hour, absorbance at 532 nm
# Experimental: […]
# Test 5 is a […] test wherein 0.1 ml aliquots of 10^−4 M methanolic solutions of the tested products are added to test tubes containing a solution formed by 0.2 ml of 2 mM desoxyribose, 0.4 ml of phosphate buffer pH 7.4 100 mM and 0.1 ml of 1 mM Fe^II(NH4)2(SO4)2 in 2 mM HCl. […] A pink coloration is developed the intensity of which is proportional to the quantity of desoxyribose undergone to radical oxidative degradation. The solutions are cooled at room temperature and their absorbances are read at 532 nm against the blank. The inhibition induced by the precursor of B or B1 or C=-TC-Y—H in comparison with the radical production by Fe^II is determined by means of the following formula: (1−AS/AC)×100 wherein AS and AC are respectively the absorbance values of the solution containing the tested compound+the iron salt and that of the solution containing only the iron salt, the compound meets test 5 when the inhibition percentage of radical production as above defined from the precursor of B or B1 or C=-TC-Y—H is higher than or equal to 50%. […]
# [2] = Test 4: inhibition of radical production from DPPH; conditions: tested substance 10^-4 M (100 μM) in methanol, 30 minutes, absorbance at 517 nm
# Experimental: [drawing 21] • wherein test 4 is the following: it is an analytical determination carried out by adding portions of methanol solutions of the precursor of B or B1 at a 10^−4 M concentration, to a methanol solution of DPPH (2,2-diphenyl-1-picryl hydrazyl-free radical); after having maintained the solution at room temperature away from light for 30 minutes, it is read the absorbance at the wave length of 517 nm of the test solution and of a solution containing only DPPH in the same amount as in the test solution; and then the inhibition induced by the precursor towards radical production by DPPH is calculated as a percentage by means of the following formula: (1−AS/AC)×100 wherein AS and AC are respectively the absorbance values of the solution containing the test compound+DPPH and that of the solution containing only DPPH; the acceptance criterium of the compounds according to this test is the following: test 4 is met by B or B1 precursor compounds if the inhibition percentage as above defined is higher than or equal to 50%;
# Test 4 is a […] test which affords to establish whether the orecursors of B or B1 inhibit the production of radicals from DPPH (2,2-diphenyl-1-picryl-hydrazyl) (M. S. Nenseter et Al., Atheroscler. Thromb. 15, 1338-1344, 1995). 100 μM solutions in methanol of the tested substances are prepared, and an aliquot of each of said solutions is added to a DPPH solution in methanol […]. After having stored the solutions at room temperature away from light for 30 minutes, their absorbances are read at the wave length of 517 nm, together with that of the corresponding DPPH solution at the same concentration. The absorbance decrease with respect to that of the solution of DPPH at the same concentration of the test solutions is determined. The effectiveness of the tested compound in inhibiting formation of radicals by DPPH is expressed by the following formula: (1−AS/AC)×100 wherein AS and AC are respectively the absorbance values of the solution containing the test compound together with DPPH and of the solution containing only DPPH; the compounds precursor of B or B1 meet test 4 when the inhibition percentage of radical production from DPPH, expressed as a percentage according to the above equation, is higher than or equal co 50% at the indicated concentration (10^−4 M).
# The method is based on a colorimetric test in which DPPH (2,2-diphenyl-1-picryl-hydrazyl) is used as the compound-forming radicals (M. S. Nenseter et Al., Atheroscler. Thromb. 15, 1338-1344, 1995).
# Solutions in methanol of the tested substances at a final concentration 100 μM are initially prepared. 0.1 ml of each of these solutions are added to aliquots of 1 ml of a methanol solution […] of DPPH and then the final volume is brought to 1.5 ml. After having stored the solutions at room temperature away from light for 30 minutes, the absorbance at the wave length of […] is read. It is determined the absorbance decrease with respect to the absorbance of a solution containing the same concentration of DPPH.
# The efficacy of the test compound to inhibit the production of radicals, otherwise said antiradical activity, is expressed by the following formula: (1−AS/AC)×100 wherein AS and AC are, respectively, the absorbance values of the solution containing the test compound together+DPPH and of the solution containing only DPPH. […]
# [3] = test system: rats treated or not treated with L-NAME; design: species or system rat (Long Evans); conditions: rat, in vivo, ip; for GPT var. %: 100 mg/kg
# Experimental: In those groups of rats treated, respectively, with ursodesoxycholic acid and chenodeoxycholic acid and thereof corresponding compounds according to the present invention, GPT is determined.
# At the end of the four weeks access to water is prevented and after 24 hours the animals are sacrificed.
# 1st group receiving L-NAME (group d-comparative) administered at the same time with 100 mg/Kg (0.25 mmoles/Kg) of ursodesoxycholic acid+49.5 mg/Kg (0.25 mmoles/Kg) of ferulic acid in the same above carrier, • c. 2nd group receiving L-NAME (group e) administered with 175 mg/Kg (0.25 mmoles/Kg) of the ursodesoxycholic derivative according to the invention (ref. ex. 1) in the same above carrier.
# [4] = test system: rats treated or not treated with L-NAME; conditions: rat, in vivo, ip
# Experimental: The endothelial dysfunction is evaluated by determining the damage the hepatic damage (GPT increase), and the vascular endothelium or cardiovascular damage (blood hypertension) induced by L-NAME admirnistration.
# The animals (Long Evans rats, average weight 350-450 g) are divided n groups as herein below described. The group receiving L-NAME is treated for 4 weeks with said compound dissolved at the concentration of 400 mg/litre in drinking water. The following groups (No. 10 animals for group) are constituted:
# • 1° group: treatment: only carrier (physiologic solution), • 2° group: trealtmrent: carrier +L-NAME, B) Groups Treated with the Drug: • 3° group: treatment: carrier+drug, • 4° group: treatment: carrier+drug+L-NAME.
# Each drug is administered by intraperitoneal route once a day for 4 weeks.
# Four hours after the last administration the blood-pressure is determined.
# Damage to the vascular endothelium is determined, as said by the cardiovascular effects induced by L-NAME (increase of the blood pressure).
# In this experiment vascular tolerability, i.e. the rise in blood pressure (vascular damage) was determined in the animals of groups b and c and expressed as percentages to that of the control group a, assumed to be 100%.
structure (smiles),measurement,setting,value
O=C(O)C1CSCN1 (stereo not drawn) [4-thiazolidin carboxylic acid],% Radical Inhibition from Fe^II,[1],100%
same,% inhibition radical production from DPPH,[2]; 100 µM,does not inhibit
N[C@@H](CS)C(=O)O [Cysteine],% inhibition radical production from DPPH,[2]; 100 µM,100%
"COc1cc(/C=C/C(=O)OCCCCO[N+](=O)[O-])ccc1OC(=O)CC[C@@H](C)[C@H]1CCC2C3C(CC[C@@]21C)[C@@]1(C)CC[C@@H](O)C[C@H]1C[C@@H]3O (stereo partly drawn) [Example 1, 3-[4-[(3α,5β,7β)-3,7-dihydroxycolan-24-oiloxy]-3-methoxyphenyl]-2-propenoic acid 4-nitroxybutyl ester]",GPT var. %,[3],103%
same,GPT variation %,[3]; 175 mg/kg,123%
"COc1cc(/C=C/C(=O)OCCCCO[N+](=O)[O-])ccc1OC(=O)CC[C@@H](C)[C@H]1CCC2C3C(CC[C@@]21C)[C@@]1(C)CC[C@@H](O)C[C@H]1C[C@H]3O (stereo partly drawn) [Example 2, 3-[4-[(3α,5β,7α)-3,7-dihydroxycolan-24-oiloxy]-3-methoxyphenyl]-2-propenoic acid 4-nitroxybutyl ester]",GPT var. %,[3],105%
"CC(=O)N[C@@H](CSC(=O)CCCO[N+](=O)[O-])C(=O)OCC(=O)[C@@]1(O)CC[C@H]2[C@@H]3CCC4=CC(=O)C=C[C@]4(C)[C@H]3[C@@H](O)C[C@@]21C [Example 3, (11β)-11,17-dihydroxy-21[N-acetyl-S-(4-nitroxybutyroyl)cysteinyloxy]-pregn-1,4-diene-3,20-dione]",Blood pressure variation %,[4]; 10 mg/kg,102%
"CC(=O)N[C@@H](CSC(=O)CCCO[N+](=O)[O-])C(=O)OCC(=O)[C@@]1(O)CC[C@H]2[C@@H]3CCC4=CC(=O)CC[C@]4(C)[C@H]3[C@@H](O)C[C@@]21C [Example 4, (11β)-11,17-Dihydroxy-21[N-acetyl-S-(4-nitroxybutyroyl)cysteinyloxy]-pregn-4-ene-3,20-dione]",Blood pressure variation %,[4]; 10 mg/kg,98%
"CC(=O)N[C@@H](CSC(=O)CCCO[N+](=O)[O-])C(=O)OCC(=O)[C@@]1(O)[C@H](C)C[C@H]2[C@@H]3CCC4=CC(=O)C=C[C@]4(C)[C@@]3(F)[C@@H](O)C[C@@]21C [Example 5, (11β,16α)-9-Fluoro-11,17-dihydroxy-21[N-acetyl-S-(4-nitroxybutyroyl)cysteinyloxy]-16-methylpregn-1,4-diene-3,20-dione]",Blood pressure variation %,[4]; 5 mg/kg,103%
same,Blood pressure variation %,[4]; 42.5 mg/kg,125%
COc1cc(/C=C/C(=O)O)ccc1O [Ferulic acid],% inhibition radical production from DPPH,[2]; 100 µM,100%
O=C(O)c1cc(O)ccc1O [Gentisic acid],% inhibition radical production from DPPH,[2]; 100 µM,80%
CC(=O)N[C@@H](CS)C(=O)O [N-acetylcysteine],% inhibition radical production from DPPH,[2],100%
C[C@H](CCC(=O)O)[C@H]1CC[C@H]2[C@@H]3[C@H](O)C[C@@H]4C[C@H](O)CC[C@]4(C)[C@H]3CC[C@]12C [chenodeoxycholic acid],GPT var. %,[3],150%
C[C@@H]1C[C@H]2[C@@H]3CCC4=CC(=O)C=C[C@]4(C)[C@@]3(F)[C@@H](O)C[C@]2(C)[C@@]1(O)C(=O)CO [dexamethasone],Blood pressure variation %,[4]; 5 mg/kg,125%
C[C@]12CCC(=O)C=C1CC[C@@H]1[C@@H]2[C@@H](O)C[C@@]2(C)[C@H]1CC[C@]2(O)C(=O)CO [hydrocortisone],Blood pressure variation %,[4]; 10 mg/kg,115%
C[C@]12C=CC(=O)C=C1CC[C@@H]1[C@@H]2[C@@H](O)C[C@@]2(C)[C@H]1CC[C@]2(O)C(=O)CO [prednisolone],Blood pressure variation %,[4]; 10 mg/kg,119%
C[C@H](CCC(=O)O)[C@H]1CC[C@H]2[C@@H]3[C@@H](O)C[C@@H]4C[C@H](O)CC[C@]4(C)[C@H]3CC[C@]12C [ursodesoxycholic acid],GPT var. %,[3],130%
